Bounds are passed on as bounds.

One data set has as its system YybT. Nature of the data set: Drug metabolism assessed as recombinant Bacillus subtilis YybT-mediated compound hydrolysis by measuring half life at 100 uM by reversed-phase HPLC method. Particulars: recombinant Bacillus subtilis YybT enzyme. It counts as ADME.
Data set [1] can be described thus: Binding affinity to Bacillus substilis 5'-32p-labelled 165 nucleotide RNA assessed as reduction in RNA cleavage measured within 40 hrs by PAGE analysis. Further details: species or system Bacillus subtilis. Particulars: read-out: Kd(app).
Data set [2] can be described thus: Drug level treated with c-di-4'-thioAMP assessed as recombinant Bacillus subtilis YybT-mediated metabolite formation at 100 uM by LRMS analysis. Format: ADME.
The nature of data set [3]: Drug metabolism assessed as recombinant Bacillus subtilis YybT-mediated ((2R,3S,4R,5R)-5-(6-amino-9H-purin-9-yl)-3-((((2R,3S,4R,5R)-5-(6-amino-9H-purin-9-yl)-3,4-dihydroxytetrahydrothiophen-2-yl)methoxy)(hydroxy)phosphoryloxy)-4-hydroxytetrahydrothiophen-2-yl)methyl dihydrogen phosphate formation at 100 uM by LRMS analysis. It counts as ADME.
Data set [4] in a line: Drug metabolism assessed as recombinant Bacillus subtilis YybT-mediated compound degradation by measuring retention time at 100 uM by reversed-phase HPLC analysis. Format: ADME.

By half-life is commonly meant the time needed for the level to fall by half in the phase considered. Take `Nc1ncnc2c1ncn2[C@@H]1O[C@@H]2CO[P@@](=O)(O)O[C@H]3[C@@H](O)[C@H](n4cnc5c(N)ncnc54)O[C@@H]3CO[P@@](=O)(O)O[C@H]2[C@H]1O`: the half-life at 100 µM in the data set on YybT was 1 h. In data set [1], the Kd is at most 0.0033 µM.
For `Nc1ncnc2c1ncn2[C@@H]1S[C@H](COP(=O)(O)O[C@H]2[C@@H](O)[C@H](n3cnc4c(N)ncnc43)S[C@@H]2COP(=O)(O)O)[C@@H](O)[C@H]1O`, in data set [2], the Drug metabolism entry is listed as “Metabolite_Detected”.
With `Nc1ncnc2c1ncn2[C@@H]1S[C@@H]2COP(=O)(O)O[C@H]3[C@@H](O)[C@H](n4cnc5c(N)ncnc54)S[C@@H]3COP(=O)(O)O[C@H]2[C@H]1O`, the Drug metabolism entry in data set [3] is on record as “Metabolite_Detected”. In addition, the half-life at 100 µM in the data set on YybT is above 12 h. Besides, in data set [1], the Kd is 34.8 µM. Also, the Retention_time in data set [4] worked out at 12.3 min.

These data come from ChEMBL document CHEMBL4052648, “Synthesis and evaluation of c-di-4'-thioAMP as an artificial ligand for c-di-AMP riboswitch” (Bioorg Med Chem, 2017).
